US11453697B1, “Cyclic di-nucleotide compounds as sting agonists” (Merck Sharp & Dohme Corp., priority 2015, dated 2022)

Tests used:
full-length HAQ STING = full-length HAQ STING (Homo sapiens (Human), UniProt Q86WV6, G230A/H232R/R293Q/R71H); assay: 3H-cGAMP filtration binding assay (HAQ STING); details: competition with tritiated cGAMP, HAQ STING membrane; read-out: EC50 (nM), 3H-cGAMP filtration binding assay for HAQ STING
From the text: The ability of compounds to bind STING is quantified by the ability to compete with tritiated cGAMP ligand for human STING receptor membrane using a radioactive filter-binding assay. The binding assay employs STING receptor obtained from Hi-Five cell membranes overexpressing full-length HAQ STING prepared in-house and tritiated cGAMP ligand also purified in-house.
The ability of compounds to bind STING is quantified by their ability to compete with tritiated cGAMP ligand for human STING receptor membrane using a radioactive filter-binding assay.
The basic HAQ STING filtration assay protocol is as follows:
Compound and membrane then preincubated for 60 min at RT to allow compound binding to equilibrate. Following equilibration, 8 nM of [^3H] c-GAMP ligand was prepared by diluting into assay buffer, and 50 uL of this working stock was then manually added to each well of the assay plate. […] The filter plates were then dried at 55° C. for 30 min using a pressurized VWR oven before 30 uL of Ultima GoldF scintillate was added to each well. Tritium levels for each reaction well were then measured using a PerkinElmer TopCount plate reader.
After normalization to controls, the percent activity for each compound concentration was calculated by measuring the amount of remaining radioactivity. The plot of percent activity versus the log of compound concentration was fit with a 4-parameter dose response equation to calculate EC50 values.

[1] = system: IFN-β secretion in THP1 cells; assay: IFN-β secretion in THP1 cell culture (5 h); format: cell-based, human; details: IFN-β secretion in THP1 cell culture, 5 h; compound at 30 μM; percent activation relative to 2′3′-cGAMP
Procedure, shortened: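 THP1 cells incubated with compound for 5 h at 37 °C, 5% CO2, and secreted IFN-β in supernatant quantified by AlphaLISA. Percent effect normalised to 30 uM cGAMP positive control and 0.3% DMSO. EC50 from 4-parameter fit.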

Sequence of full-length HAQ STING (Q86WV6 other isoform, or with tags, fused parts or gaps, stated change not applied): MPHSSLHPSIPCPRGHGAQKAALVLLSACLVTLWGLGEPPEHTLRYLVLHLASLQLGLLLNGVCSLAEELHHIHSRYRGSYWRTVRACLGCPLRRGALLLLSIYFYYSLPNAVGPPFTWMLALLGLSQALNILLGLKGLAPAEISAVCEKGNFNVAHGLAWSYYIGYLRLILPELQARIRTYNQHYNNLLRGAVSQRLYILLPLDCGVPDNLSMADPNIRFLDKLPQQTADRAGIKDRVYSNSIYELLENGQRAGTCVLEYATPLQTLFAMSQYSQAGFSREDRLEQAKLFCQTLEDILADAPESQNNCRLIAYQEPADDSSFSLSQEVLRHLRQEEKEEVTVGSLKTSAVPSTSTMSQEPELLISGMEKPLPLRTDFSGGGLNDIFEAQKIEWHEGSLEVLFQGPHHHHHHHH

| Compound | EC50 (full-length HAQ STING) [nM] | % Effect at 30 μM relative to 2′3′-cGAMP [1] [%] |
| --- | --- | --- |
| NC(=O)c1ncnc2c1ncn2[C@@H]1O[C@@H]2COP(=O)(O)O[C@@H]3[C@H](O)[C@@H](COP(=O)(O)O[C@H]2[C@H]1O)O[C@H]3n1cnc2c(=O)[nH]c(N)nc21 [Example 76, 9-[(5R,7R,8R,12aR,14R,15R,15aS,16R)-7-(2-amino-6-oxo-1,6-dihydro-9H-purin-9-yl)-2,10,15,16-tetrahydroxy-2,10-dioxidooctahydro-12H-5,8-methanofuro[3,2-l][1,3,6,9,11,2,10]pentaoxadiphosphacyclotetradecin-14-yl]-9H-purine-6-carboxamide] | 75.4 | 39 |
| Nc1nc2c(ncn2[C@@H]2O[C@@H]3COP(=O)(O)O[C@H]4[C@H](F)[C@H](n5cnc6c(=O)[nH]cnc65)O[C@@H]4COP(=O)(O)O[C@@H]2C3)c(=O)[nH]1 [Example 312, 2-amino-9-[(5S,7R,8R,12aR,14R,15S,15aR)-15-fluoro-2,10-dihydroxy-2,10-dioxido-14-(6-oxo-1,6-dihydro-9H-purin-9-yl)octahydro-12H-5,8-methanofuro[3,2-l] [1,3,6,9,11,2,10]pentaoxadiphosphacyclo-tetradecin-7-yl]-1,9-dihydro-6H-purin-6-one] | 122 | 90 |
| Nc1nc2c(ccn2[C@@H]2O[C@@H]3COP(=O)(O)O[C@H]4[C@@H](O)[C@H](n5ccc6c(N)ncnc65)O[C@@H]4COP(=O)(O)O[C@@H]2[C@@H]3O)c(=O)[nH]1 [Example 37, 2-amino-7-[(5R,7R,8R,12aR,14R,15R,15aS,16R)-14-(4-amino-7H-pyrrolo[2,3-d]pyrimidin-7-yl)-2,10,15,16-tetrahydroxy-2,10-dioxidooctahydro-12H-5,8-methanofuro[3,2-l][1,3,6,9,11,2,10]pentaoxadiphosphacyclotetradecin-7-yl]-3,7-dihydro-4H-pyrrolo[2,3-d]pyrimidin-4-one] | 620 | 57 |
| Nc1nc2c(ncn2[C@@H]2O[C@@H]3COP(=O)(O)O[C@H]4[C@H](F)[C@H](n5cnc6c(=O)[nH]cnc65)O[C@@H]4COP(=O)(O)O[C@@H]2[C@@H]3O)c(=O)[nH]1 [Example 295, 2-amino-9-[(5R,7R,8R,12aR,14R,15S,15aR,16R)-15-fluoro-2,10,16-trihydroxy-2,10-dioxido-14-(6-oxo-1,6-dihydro-9H-purin-9-yl)octahydro-12H-5,8-methanofuro[3,2-l] [1,3,6,9,11,2,10]pentaoxadiphosphacyclo-tetradecin-7-yl]-1,9-dihydro-6H-purin-6-one] | 29.6 | 70 |

Stronger by EC50 (full-length HAQ STING), values ahead:

| EC50 (full-length HAQ STING) [nM] | Compound | % Effect at 30 μM relative to 2′3′-cGAMP [1] [%] |
| --- | --- | --- |
| 12.4 | C[C@H]1OP(=O)(O)O[C@@H]2C[C@@H](COP(=O)(O)O[C@H]3[C@@H](O)[C@H](n4cnc5c(N)ncnc54)O[C@@H]31)O[C@H]2n1cnc2c(=O)[nH]c(N)nc21 [Example 16, 2-amino-9-[(5S,7R,8R,12R,12aR,14R,15R,15aS)-14-(6-amino-9H-purin-9-yl)-2,10,15-trihydroxy-12-methyl-2,10-dioxidooctahydro-12H-5,8-methanofuro[3,2-l][1,3,6,9,11,2,10]pentaoxadiphosphacyclotetradecin-7-yl]-1,9-dihydro-6H-purin-6-one] | 57 |
| 7.3 | Nc1nc2c(ncn2[C@@H]2S[C@@H]3COP(=O)(O)O[C@H]4[C@@H](O)[C@H](n5cnc6c(=O)[nH]cnc65)O[C@@H]4COP(=O)(O)O[C@@H]2[C@@H]3O)c(=O)[nH]1 [Example 319, 2-amino-9-[(5R,7R,8R,12aR,14R,15R,15aS,16S)-2,10,15,16-tetrahydroxy-2,10-dioxido-14-(6-oxo-1,6-dihydro-9H-purin-9-yl)octahydro-12H-5,8-methanofuro[3,2-l][1,3,6,9,11,6,2,10]tetraoxathiadiphosphacyclotetradecin-7-yl]-1,9-dihydro-6H-purin-6-one] | 143 |
